Peptide text beside a SMILES is read from it.
Columns and labels:
cells [1] = assay: Cell attachment to peptide-coupled Sepharose (agarose) beads; type: cell-based; conditions: coupled to cyanogen bromide-activated agarose beads (Sepharose), sterilized by autoclaving
Experimental: The four synthetic peptides as well as the 11.5-kDal fragment and a 200-kDal fragment of fibronectin were coupled to cyanogen bromide-activated Sepharose-6MB beads (Pharmacia) according to the manufacturer's instructions. The peptides were first reduced as described above and used at 8 mg of peptide per ml of Sepharose. Albumin-coated beads and beads derivatized with ethanolamine were used as controls.
The cell attachment assays were performed as described (Ruoslahti, E. et al (1981) Methods Enzymology82,803-831) with human fibroblasts or normal rat kidney (NRK) cells. Briefly, 100 I of a single- cell suspension containing […] was placed in a flat-bottom microtiter well that had been coated with one of the peptides or with fibronectin. After 1 h at 37°C, unattached cells were washed away and attached cells were fixed and stained for counting. In some experiments soluble peptide was added to the medium to determine if its presence during the attachment would have an inhibitory effect. Cell attachment to the agarose beads was performed on a layer of beads in the bottom of a round-bottom microtiter well exactly as described above.

cells [2] = assay: Cell-attachment activity of the synthetic fragment compared with the entire polypeptide; type: cell-based

Compound: CC[C@H](C)[C@H](NC(=O)[C@H](CO)NC(=O)[C@@H](NC(=O)[C@@H]1CCCN1C(=O)[C@H](CCCCN)NC(=O)[C@H](CO)NC(=O)[C@H](CO)NC(=O)[C@H](C)NC(=O)[C@@H]1CCCN1C(=O)[C@H](CO)NC(=O)[C@H](CC(=O)O)NC(=O)CNC(=O)[C@H](CCCNC(=N)N)NC(=O)CNC(=O)[C@@H](NC(=O)[C@@H](NC(=O)[C@H](C)NC(=O)[C@@H](N)Cc1ccc(O)cc1)C(C)C)[C@@H](C)O)[C@@H](C)CC)C(=O)N[C@@H](CC(N)=O)C(=O)N[C@@H](Cc1ccc(O)cc1)C(=O)N[C@@H](CCCNC(=N)N)C(=O)N[C@H](C(=O)N[C@@H](CCC(=O)O)C(=O)N[C@H](C(=O)N[C@@H](CC(=O)O)C(=O)N[C@@H](CCCCN)C(=O)N1CCC[C@H]1C(=O)N[C@@H](CO)C(=O)N[C@@H](CCC(N)=O)C(=O)N[C@@H](CCSC)C(=O)O)[C@@H](C)CC)[C@@H](C)O [30-residue fragment, H-Tyr-Ala-Val-Thr-Gly-Arg-Gly-Asp-Ser-Pro-Ala-Ser-Ser-Lys-Pro-IIe-Ser-IIe-Asn-Tyr-Arg-Thr-Glu-IIe-Asp-Lys-Pro-Ser-Gln-Met-OH] (H-YAVTGRGDSPASSKPISINYRTEIDKPSQM-OH)
- attachment of cells to beads (cells [1]): induces attachment of cells to the beads
- cell-attachment activity compared with the entire sequence (cells [2]): the same activity as the entire sequence
